Assay results reported in ChEMBL document CHEMBL4354824, “4-Aryl-1-oxa-4,9-diazaspiro[5.5]undecane Derivatives as Dual μ-Opioid Receptor Agonists and σ1 Receptor Antagonists for the Treatment of Pain” (J Med Chem, 2020).
Each block holds one compound with its values, some of them ahead of it.

Tests used:
[1] = target: T1, Mu-type opioid receptor (Homo sapiens, UniProt P35372); experiment: Agonist activity at human MOR expressed in CHOK1 cells assessed as […] of cAMP accumulation incubated for 45 mins by HTRF assay relative to DAMGO; format: functional, cell-based
T1 sequence (P35372 whole entry): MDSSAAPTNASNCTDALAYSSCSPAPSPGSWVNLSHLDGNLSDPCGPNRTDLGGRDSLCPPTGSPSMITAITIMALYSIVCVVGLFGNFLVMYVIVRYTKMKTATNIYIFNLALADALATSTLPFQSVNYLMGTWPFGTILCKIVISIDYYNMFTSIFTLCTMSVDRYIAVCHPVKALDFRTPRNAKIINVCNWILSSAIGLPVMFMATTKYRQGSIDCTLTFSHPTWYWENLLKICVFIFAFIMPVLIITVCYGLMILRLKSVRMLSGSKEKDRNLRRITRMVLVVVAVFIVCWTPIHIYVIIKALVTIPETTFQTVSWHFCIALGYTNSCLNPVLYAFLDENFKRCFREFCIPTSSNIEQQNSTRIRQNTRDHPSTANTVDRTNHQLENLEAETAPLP

[2] = target: Sigma non-opioid intracellular receptor 1 (Homo sapiens, UniProt Q99720); experiment: Displacement of [3H]-(+)-pentazocine from human sigma-1 receptor expressed in HEK293 membranes incubated for 120 mins by liquid scintillation counting method
Sequence of Sigma non-opioid intracellular receptor 1 (Q99720 whole entry): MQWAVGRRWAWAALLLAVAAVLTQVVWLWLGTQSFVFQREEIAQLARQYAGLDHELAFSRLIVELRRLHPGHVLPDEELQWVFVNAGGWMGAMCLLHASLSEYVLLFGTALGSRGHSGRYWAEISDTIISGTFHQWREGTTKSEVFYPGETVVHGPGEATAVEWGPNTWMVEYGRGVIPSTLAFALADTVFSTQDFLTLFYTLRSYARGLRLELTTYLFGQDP

[3] = target: T2, Alpha-1A adrenergic receptor (Homo sapiens) (UniProt P35348); experiment: Displacement of [3H]-prazosin from human alpha1A adrenoreceptor expressed in enriched membranes at 1 uM incubated for 90 mins by liquid scintillation counting method relative to control; format: cell membranes
T2 sequence (whole entry): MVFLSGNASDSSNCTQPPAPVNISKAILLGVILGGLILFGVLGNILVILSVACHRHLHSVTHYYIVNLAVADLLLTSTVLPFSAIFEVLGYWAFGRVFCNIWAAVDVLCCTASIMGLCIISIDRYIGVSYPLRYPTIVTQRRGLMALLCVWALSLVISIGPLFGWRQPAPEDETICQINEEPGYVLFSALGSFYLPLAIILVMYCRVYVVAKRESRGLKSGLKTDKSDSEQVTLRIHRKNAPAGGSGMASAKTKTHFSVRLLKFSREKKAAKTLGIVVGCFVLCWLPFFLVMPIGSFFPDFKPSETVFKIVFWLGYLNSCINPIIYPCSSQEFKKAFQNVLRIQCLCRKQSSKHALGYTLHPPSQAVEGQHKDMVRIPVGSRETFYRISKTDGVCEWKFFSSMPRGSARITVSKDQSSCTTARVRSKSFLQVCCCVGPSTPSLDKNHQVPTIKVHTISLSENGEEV

[4] = target: T1, Mu-type opioid receptor; experiment: Agonist activity at human MOR expressed in CHOK1 cells assessed as […] of cAMP accumulation incubated for 45 mins by HTRF assay; format: functional, cell-based
[5] = target: T1, Mu-type opioid receptor; experiment: Agonist activity at human MOR expressed in CHOK1 cells assessed as […] of cAMP accumulation at 1 uM incubated for 45 mins by HTRF assay; format: functional, cell-based
[6] = target: T1, Mu-type opioid receptor; experiment: biochemical
Description: Displacement of [3H]-DAMGO from human MOR expressed in CHOK1 cell membranes incubated for 60 mins by liquid scintillation counting method

[7] = target: Voltage-gated inwardly rectifying potassium channel KCNH2 (Homo sapiens, UniProt Q12809)
Sequence of Voltage-gated inwardly rectifying potassium channel KCNH2 (Q12809 whole entry): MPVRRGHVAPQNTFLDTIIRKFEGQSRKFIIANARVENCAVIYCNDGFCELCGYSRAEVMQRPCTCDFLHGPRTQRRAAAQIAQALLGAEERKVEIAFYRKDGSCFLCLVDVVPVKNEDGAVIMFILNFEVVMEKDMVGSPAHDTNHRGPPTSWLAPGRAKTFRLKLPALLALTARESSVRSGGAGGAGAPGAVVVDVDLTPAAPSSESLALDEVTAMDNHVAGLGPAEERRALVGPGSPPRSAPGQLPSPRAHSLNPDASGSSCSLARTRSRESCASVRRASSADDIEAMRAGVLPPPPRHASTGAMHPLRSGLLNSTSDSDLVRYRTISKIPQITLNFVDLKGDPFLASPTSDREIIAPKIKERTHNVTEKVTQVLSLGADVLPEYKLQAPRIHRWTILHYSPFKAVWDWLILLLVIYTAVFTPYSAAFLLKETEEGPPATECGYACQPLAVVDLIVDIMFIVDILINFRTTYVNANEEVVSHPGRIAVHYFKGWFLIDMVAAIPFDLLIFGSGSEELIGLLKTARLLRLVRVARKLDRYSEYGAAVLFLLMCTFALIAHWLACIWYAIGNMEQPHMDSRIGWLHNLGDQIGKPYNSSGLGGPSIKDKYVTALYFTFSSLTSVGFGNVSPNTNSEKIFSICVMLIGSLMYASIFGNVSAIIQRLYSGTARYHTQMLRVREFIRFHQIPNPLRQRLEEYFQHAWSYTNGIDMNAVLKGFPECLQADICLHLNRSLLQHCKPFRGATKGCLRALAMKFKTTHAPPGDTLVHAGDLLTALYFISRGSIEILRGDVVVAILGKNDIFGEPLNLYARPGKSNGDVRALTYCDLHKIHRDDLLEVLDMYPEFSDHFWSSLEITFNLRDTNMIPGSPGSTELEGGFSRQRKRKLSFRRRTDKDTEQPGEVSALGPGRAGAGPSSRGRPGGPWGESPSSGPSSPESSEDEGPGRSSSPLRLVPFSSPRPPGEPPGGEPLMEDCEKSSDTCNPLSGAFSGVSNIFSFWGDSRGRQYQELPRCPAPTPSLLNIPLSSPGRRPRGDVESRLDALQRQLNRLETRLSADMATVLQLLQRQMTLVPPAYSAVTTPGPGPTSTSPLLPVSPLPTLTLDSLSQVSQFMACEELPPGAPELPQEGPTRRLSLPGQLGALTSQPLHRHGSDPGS
Description: Inhibition of human ERG expressed in CHOK1 cells assessed as reduction in channel current at -80 mV holding potential by whole cell patch clamp assay

[8] = target: T1, Mu-type opioid receptor; experiment: Displacement of [3H]-DAMGO from human MOR expressed in CHOK1 cell membranes at 1 uM incubated for 60 mins by liquid scintillation counting method

SMILES: C[C@@H]1OC2(CCN(CCc3ccccc3)CC2)CN(c2ccccc2)C1=O
Emax [1]: 83%
Ki [2]: 14 nM
inhibition [3]: 68%

SMILES: CC1OC2(CCN(CCc3ccccc3)CC2)CN(c2ccc(O)cc2)C1=O (stereo not given)
EC50 [4]: > 1000 nM
Activity [5]: < 50%
Ki [2]: 122 nM
inhibition [3]: 68%
Ki [6]: 606 nM

SMILES: O=C1C(CO)OC2(CCN(CCc3ccccc3)CC2)CN1c1ccccc1 (stereo not given)
EC50 [4]: 125 nM
Emax [1]: 88%
Ki [2]: 209 nM
inhibition [3]: 55%
IC50 [7]: 1100 nM
Ki [6]: 46 nM

SMILES: CC1OC2(CCN(CCc3ccccc3)CC2)CN(c2cncc(C(F)(F)F)c2)C1=O (stereo not given)
EC50 [4]: 721 nM
Emax [1]: 92%
Ki [2]: 14 nM
inhibition [3]: 87%
IC50 [7]: 500 nM
Ki [6]: 261 nM

SMILES: COc1cccc(N2CC3(CCN(CCc4ccccc4)CC3)OC(C)C2=O)c1 (stereo not given)
EC50 [4]: 304 nM
Emax [1]: 88%
Ki [2]: 15 nM
inhibition [3]: 82%
IC50 [7]: 1000 nM
Ki [6]: 126 nM

SMILES: CC1OC2(CCN(CCc3ccccn3)CC2)CN(c2ccccc2)C1=O (stereo not given)
EC50 [4]: 229 nM
Emax [1]: 85%
Ki [2]: 53 nM
inhibition [3]: 49%
IC50 [7]: 2000 nM
Ki [6]: 90 nM

SMILES: CC1OC2(CCN(CCc3ccccc3)CC2)CN(c2ccccc2O)C1=O (stereo not given)
EC50 [4]: > 1000 nM
Activity [5]: < 50%
Ki [2]: 51 nM
inhibition [3]: 66%
Ki [6]: 535 nM

SMILES: O=C1N(c2ccccc2)CC2(CCN(CCc3ccccc3)CC2)OC12CC2
EC50 [4]: 11 nM
Emax [1]: 93%
Ki [2]: 9 nM
inhibition [3]: 87%
IC50 [7]: 1200 nM
Ki [6]: 15 nM

EC50 [4]: 1420 nM
Emax [1]: 81%
Ki [2]: 112 nM
inhibition [3]: 30%
Ki [6]: 516 nM
SMILES: CC1OC2(CCN(CCc3ccncc3)CC2)CN(c2ccccc2)C1=O (stereo not given)

SMILES: CN(C)C(=O)CC1OC2(CCN(CCc3ccccc3)CC2)CN(c2ccccc2)C1=O (stereo not given)
EC50 [4]: > 1000 nM
Activity [5]: < 50%
Ki [2]: 275 nM
Ki [6]: 636 nM

SMILES: CC1OC2(CCN(CCc3cccc(C#N)c3)CC2)CN(c2ccccc2)C1=O (stereo not given)
EC50 [4]: 61 nM
Emax [1]: 88%
Ki [2]: 28 nM
inhibition [3]: 80%
IC50 [7]: 600 nM
Ki [6]: 49 nM

SMILES: CC1OC2(CCN(CCc3ccccc3)CC2)CN(c2ccccn2)C1=O (stereo not given)
EC50 [4]: 1990 nM
Emax [1]: 50%
Ki [2]: 13 nM
inhibition [3]: 63%
Ki [6]: 930 nM

SMILES: CC1OC2(CCN(CCc3ccccc3)CC2)CN(c2ncccc2C(F)(F)F)C1=O (stereo not given)
EC50 [4]: 343 nM
Emax [1]: 100%
Ki [2]: 54 nM
inhibition [3]: 60%
IC50 [7]: 8200 nM
Ki [6]: 262 nM

SMILES: CC1OC2(CCN(CCc3ccccc3)CC2)CN(c2cccnc2C(F)(F)F)C1=O (stereo not given)
EC50 [4]: 186 nM
Emax [1]: 87%
Ki [2]: 48 nM
inhibition [3]: 55%
IC50 [7]: 3800 nM
Ki [6]: 123 nM

SMILES: CC1OC2(CCN(CCc3ccccc3)CC2)CN(c2cccc(O)c2)C1=O (stereo not given)
EC50 [4]: > 1000 nM
Activity [5]: < 50%
Ki [2]: 55 nM
inhibition [3]: 67%
Ki [6]: 727 nM

SMILES: CC1OC2(CCN(CCc3ccccc3)CC2)CN(c2cnccn2)C1=O (stereo not given)
EC50 [4]: 527 nM
Emax [1]: 55%
Ki [2]: 13 nM
inhibition [3]: 64%
IC50 [7]: 100 nM
Ki [6]: 304 nM

SMILES: CCC1OC2(CCN(CCc3ccccc3)CC2)CN(c2ccccc2)C1=O (stereo not given)
EC50 [4]: 1 nM
Emax [1]: 99%
Ki [2]: 6 nM
inhibition [3]: 75%
IC50 [7]: 400 nM
Ki [6]: 3 nM

SMILES: CC1OC2(CCN(CCc3ccc(F)cc3)CC2)CN(c2ccccc2)C1=O (stereo not given)
EC50 [4]: 25 nM
Emax [1]: 95%
Ki [2]: 11 nM
inhibition [3]: 80%
IC50 [7]: 100 nM
Ki [6]: 19 nM

SMILES: O=C1COC2(CCN(Cc3ccccc3)CC2)CN1c1ccccc1
EC50 [4]: 3040 nM
Emax [1]: 74%
Ki [2]: 26 nM
Ki [6]: 534 nM

SMILES: CC1OC2(CCN(CCc3ccccc3)CC2)CN(c2ncccc2F)C1=O (stereo not given)
EC50 [4]: 199 nM
Emax [1]: 90%
Ki [2]: 39 nM
inhibition [3]: 77%
IC50 [7]: 1200 nM
Ki [6]: 93 nM

SMILES: C[C@H]1OC2(CCN(CCc3ccccc3)CC2)CN(c2ccccc2)C1=O
Emax [1]: 95%
Ki [2]: 21 nM
inhibition [3]: 75%

EC50 [4]: 767 nM
Emax [1]: 93%
Ki [2]: 622 nM
inhibition [3]: 47%
Ki [6]: 127 nM
SMILES: CC1OC2(CCN(CCc3ccccn3)CC2)CN(c2cnccc2C(F)(F)F)C1=O (stereo not given)

SMILES: COC(=O)CC1OC2(CCN(CCc3ccccc3)CC2)CN(c2ccccc2)C1=O (stereo not given)
EC50 [4]: 181 nM
Emax [1]: 85%
Ki [2]: 54 nM
inhibition [3]: 72%
IC50 [7]: 200 nM
Ki [6]: 92 nM

SMILES: C[C@H]1OC2(CCN(CCc3ccccc3F)CC2)CN(c2ncccc2C(F)(F)F)C1=O
EC50 [4]: 65 nM
Emax [1]: 98%
Ki [2]: 103 nM
inhibition [3]: 50%
IC50 [7]: 6600 nM
Ki [6]: 34 nM

SMILES: CC1OC2(CCN(CCc3cccnc3)CC2)CN(c2ccccc2)C1=O (stereo not given)
EC50 [4]: 853 nM
Emax [1]: 85%
Ki [2]: 91 nM
inhibition [3]: 67%
Ki [6]: 117 nM

SMILES: CC(C)C1OC2(CCN(CCc3ccccc3)CC2)CN(c2ccccc2)C1=O (stereo not given)
EC50 [4]: 0.2 nM
Emax [1]: 96%
Ki [2]: 10 nM
inhibition [3]: 65%
IC50 [7]: 1200 nM
Ki [6]: 1 nM

SMILES: CC1OC2(CCN(CCc3ccccc3)CC2)CN(c2cncc(F)c2)C1=O (stereo not given)
EC50 [4]: 230 nM
Emax [1]: 87%
Ki [2]: 3 nM
inhibition [3]: 85%
IC50 [7]: 1100 nM
Ki [6]: 204 nM

SMILES: CC1OC2(CCN(CCc3ccccc3)CC2)CN(c2ccccc2)C1=O (racemic)
Ki [2]: 6 nM

SMILES: CC1OC2(CCN(CCc3ccccc3)CC2)CN(c2cccnc2)C1=O (stereo not given)
EC50 [4]: 627 nM
Emax [1]: 54%
Ki [2]: 68 nM
inhibition [3]: 69%
Ki [6]: 304 nM

EC50 [4]: 13 nM
Emax [1]: 94%
Ki [2]: 8 nM
inhibition [3]: 74%
Ki [6]: 10 nM
SMILES: CC1OC2(CCN(CCc3cccc(F)c3)CC2)CN(c2ccccc2)C1=O (stereo not given)
IC50 [7]: 600 nM

SMILES: C[C@H]1OC2(CCN(CCc3ccccc3F)CC2)CN(c2cnccc2C(F)(F)F)C1=O
EC50 [4]: 26 nM
Emax [1]: 100%
Ki [2]: 61 nM
inhibition [3]: 54%
IC50 [7]: 6300 nM
Ki [6]: 11 nM

EC50 [4]: > 1000 nM
Activity [5]: < 50%
Ki [2]: 55 nM
Ki [6]: 401 nM
SMILES: O=C1OC2(CCN(CCc3ccccc3)CC2)CN1c1ccccc1

SMILES: CC1(C)OC2(CCN(CCc3ccccc3)CC2)CN(c2ccccc2)C1=O
EC50 [4]: 4 nM
Emax [1]: 98%
Ki [2]: 13 nM
inhibition [3]: 92%
IC50 [7]: 100 nM
Ki [6]: 3 nM

SMILES: CC1OC2(CCN(CCc3ccccc3F)CC2)CN(c2ccccc2)C1=O (stereo not given)
Emax [1]: 95%
inhibition [3]: 81%

EC50 [4]: > 1000 nM
Activity [5]: < 50%
Ki [2]: 53 nM
inhibition [8]: < 50%
Ki [6]: > 1000 nM
SMILES: O=C1COC2(CCN(CCc3ccccc3)C2)CN1c1ccccc1 (stereo not given)

SMILES: CC1OC2(CCN(CCc3ccccc3)CC2)CN(c2cnccc2C(F)(F)F)C1=O (stereo not given)
EC50 [4]: 25 nM
Emax [1]: 96%
Ki [2]: 63 nM
inhibition [3]: 58%
IC50 [7]: 3300 nM
Ki [6]: 28 nM

SMILES: COc1ccccc1N1CC2(CCN(CCc3ccccc3)CC2)OC(C)C1=O (stereo not given)
EC50 [4]: 144 nM
Emax [1]: 81%
Ki [2]: 38 nM
inhibition [3]: 78%
Ki [6]: 57 nM

SMILES: COCC1OC2(CCN(CCc3ccccc3)CC2)CN(c2ccccc2)C1=O (stereo not given)
EC50 [4]: 32 nM
Emax [1]: 90%
Ki [2]: 32 nM
inhibition [3]: 63%
IC50 [7]: 1900 nM
Ki [6]: 13 nM

SMILES: CC(=O)Nc1ccccc1CCN1CCC2(CC1)CN(c1ccccc1)C(=O)C(C)O2 (stereo not given)
EC50 [4]: 342 nM
Emax [1]: 95%
Ki [2]: 656 nM
inhibition [3]: 68%
Ki [6]: 190 nM

SMILES: O=C1C(COCc2ccccc2)OC2(CCN(CCc3ccccc3)CC2)CN1c1ccccc1 (stereo not given)
EC50 [4]: 107 nM
Emax [1]: 96%
Ki [2]: 40 nM
inhibition [3]: 94%
IC50 [7]: 100 nM
Ki [6]: 40 nM

SMILES: CC1OC2(CCN(CCc3ccccc3)CC2)CN(c2ccccc2F)C1=O (stereo not given)
EC50 [4]: 4 nM
Emax [1]: 94%
Ki [2]: 11 nM
inhibition [3]: 68%
IC50 [7]: 1200 nM
Ki [6]: 8 nM

SMILES: CC1OC2(CCN(CCc3ccccc3)CC2)CN(c2cccc(C(F)(F)F)n2)C1=O (stereo not given)
EC50 [4]: 219 nM
Emax [1]: 91%
Ki [2]: 8 nM
inhibition [3]: 95%
Ki [6]: 90 nM

SMILES: CC1OC2(CCN(CCc3ccccc3)CC2)CN(c2ccccc2Cl)C1=O (stereo not given)
EC50 [4]: 1 nM
Emax [1]: 96%
Ki [2]: 8 nM
inhibition [3]: 75%
IC50 [7]: 1000 nM
Ki [6]: 3 nM
